# Measurements as given in patent US8557286B1, “Method for producing a water-insoluble amorphous or partially amorphous controlled release matrix” (EuroCeltique, S.A., priority 2000, dated 2013).
# Test: Release of the active agent in a paddle agitator model according to USP
# Type: physicochemical
# Details: total dose of 25 mg; pure caffeine, not retarded, filled in a capsule; FIG. 3
# Source text: In this context it is once again pointed out that the degree of destructurization into the glass state is decisive for the kinetics of the release of the active agents. […] For comparative purposes, the release of pure caffeine, not retarded and filled in a capsule has been drawn in.
compound,measurement,value
Cn1c(=O)c2c(ncn2C)n(C)c1=O [caffeine],Time of release for the total dose,about 15 minutes
